From patent US20220023454A1, “PHOTODYNAMIC METHOD TO DECONTAMINATE SURFACES” (priority 2020, published 2022)

Key:
[1] = tested on: FCV; assay: Virus added to light-preexposed Ph-B solution, cell culture titration; set-up: species or system feline calicivirus; conditions: 50 μM Phloxin-B pre-exposed to blue LED light 1-10 min; 1 to 5 min contact
Procedure: (§1) Several 50 μM stocks of Phloxin-B solution are prepared (500 μL each). Each stock is pre-exposed to the blue LED light for specific times (e.g., 1, 2, 3, 5, and 10 min). Immediately after light exposure, 50 μL of the tested virus (FCV, TuV, and TGEV) is added to the light-preexposed Ph-B solution for about 1 to 5 min contact times before titrating the surviving virus using a cell culture assay. A >3 log reduction in the virus titer is observed.

[2] = tested on: Gram positive or Gram negative bacterial suspension, e.g., E. coli, Salmonella enterica, Staphylococcus aureus, or Bacillus subtilis; assay: Decontamination of lettuce leaves and stainless-steel discs spiked with bacteria, blue LED light, agar plate count; conditions: 50 μM Phloxin-B, 1 cm distance, blue LED 1, 3, 5, and 10 minutes; lettuce leaf or stainless-steel surface
Procedure: Romaine lettuce leaves are cut into small squares (2×2 cm) and then are disinfected using 300 ppm sodium hypochlorite followed by rinsing three times with sterilized distilled water. Sterile stainless-steel discs are also used as a model for surface decontamination. Each sample is spiked with 50 μL of a Gram positive or Gram negative bacterial suspension, e.g., E. coli, Salmonella enterica, Staphylococcus aureus, or Bacillus subtilis, then dried for 30 minutes. 100 μL of a 50 μM Phloxin-B solution is then added to each spiked leaf or stainless-steel surface. The samples are exposed at a 1 cm distance to the blue LED light source for 1, 3, 5, and 10 minutes. After each exposure time any surviving bacterial cells are recovered in 500 μL of recovery buffer followed by vortexing for 0.5 to 1 minute. The surviving bacterial cells are enumerated using Agar plate count technique. A ≥3 log reduction in the bacterial cell counts is observed.

[3] = tested on: Tulane virus (TuV); assay: Photodynamic inactivation of TuV in water with photosensitizer and light; conditions: for efficacy against TuV: photodynamic treatment, under the conditions tested (10, 25, 50 μM PS; light exposure)
Procedure: (§2) The inactivation of HuNoV surrogates (e.g., feline calicivirus (FCV) and Tulane virus (TuV)) was studied, by exposure to light in the presence of photosensitizer dyes in water, FCV and TuV were mixed with different concentrations (10, 25, and 50 μM) of three different PS (Rose Bengal (RB), Phloxine B (Ph-B) and chlorophyllin) and then exposed to light for a period of time, e.g., 1, 3, 5, or 10 minutes. While not being limited to a mode of action, capsid integrity and/or genome integrity may be impacted by the exposure of viruses to light in the presence of the PS.
(§3) Shellfish and fresh produce are the most frequent foods implicated in human norovirus (HuNoV) outbreaks in the US. Decontamination of virus-contaminated waters used in depuration of oysters, clams or mussels, and in post-harvest washing of fresh produce, is a mitigation strategy for this human biothreat risk. […] Although the PDT has been studied extensively for bacterial inactivation, studies on its use for viral inactivation in food and water are scarce. Inactivation of >4 log TCID50 of two HuNoV surrogates (feline calicivirus (FCV) and Tulane virus (TuV)) in water was observed upon exposure to LED-blue light for 3 to 10 min using Rose Bengal (RB) or Phloxine-B (Ph-B) as photosensitizers. The virucidal effect of PDT may depend on the type of treated virus, the light source, the type and concentration of the photosensitizer (PS), and the operational parameters such as the distance between the light source and treated object and/or exposure time.

[4] = tested on: TuV; assay: Virus added to light-preexposed Ph-B solution, cell culture titration; set-up: species or system Tulane virus; conditions: 50 μM Phloxin-B pre-exposed to blue LED light 1-10 min; 1 to 5 min contact
Procedure: as §1

[5] = tested on: feline calicivirus (FCV); assay: Photodynamic inactivation of FCV in water with photosensitizer and light; conditions: for log reduction in FCV: 3 minute exposure; for efficacy against FCV: photodynamic treatment, under the conditions tested (10, 25, 50 μM PS; light exposure)
Procedure: as §2, §3

[6] = tested on: TGEV; assay: Virus added to light-preexposed Ph-B solution, cell culture titration; set-up: species or system transmissible gastroenteritis virus; conditions: 50 μM Phloxin-B pre-exposed to blue LED light 1-10 min; 1 to 5 min contact
Procedure: as §1

With `O=C([O-])c1c(Cl)c(Cl)c(Cl)c(Cl)c1-c1c2cc(Br)c(=O)c(Br)c-2oc2c(Br)c([O-])c(Br)cc12.[Na+].[Na+]` [Ph-B, Phloxine B] the “log reduction in the virus titer (FCV)” value [1] was over 3 log, the “log reduction in the bacterial cell counts” value [2] was at least 3 log and the “log reduction in TuV” value ([3]; 5 minute exposure, 50 μM Ph-B) was 4 log. The “efficacy against TuV” value [3] was “high efficacy”, the “log reduction in the virus titer (TuV)” value [4] was over 3 log and the “log reduction in FCV” value ([5]; 50 μM Ph-B) was 4 log. For the same compound, the “efficacy against FCV” value [5] was “high efficacy” and the “log reduction in the virus titer (TGEV)” value [6] was over 3 log.
With `O=C1OC2(c3cc(I)c(O)c(I)c3Oc3c2cc(I)c(O)c3I)c2c(Cl)c(Cl)c(Cl)c(Cl)c21` [RB, Rose Bengal] the “log reduction in TuV” value ([3]; 10 minute exposure, 50 μM RB) was 4 log, the “efficacy against TuV” value [3] was “high efficacy” and the “log reduction in FCV” value ([5]; 25 μM RB) was 4 log. For the same compound, the “efficacy against FCV” value [5] was “high efficacy”.
In the case of chlorophyllin, the “efficacy against FCV” value [5] is reported as “low efficacy”.
